The values that follow come from patent US20060264460A1 (Wyeth, priority 2005, published 2006).

T1 sequence (P41279 30-398): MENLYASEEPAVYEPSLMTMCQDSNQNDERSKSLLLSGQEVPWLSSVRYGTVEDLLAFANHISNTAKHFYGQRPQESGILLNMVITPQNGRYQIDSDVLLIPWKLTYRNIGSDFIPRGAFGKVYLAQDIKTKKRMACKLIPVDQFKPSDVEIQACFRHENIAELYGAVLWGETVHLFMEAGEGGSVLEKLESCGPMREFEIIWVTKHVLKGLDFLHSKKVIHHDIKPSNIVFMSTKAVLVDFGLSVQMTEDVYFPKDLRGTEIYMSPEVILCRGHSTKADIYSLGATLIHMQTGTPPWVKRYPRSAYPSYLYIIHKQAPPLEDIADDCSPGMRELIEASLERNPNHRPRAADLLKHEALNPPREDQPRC

This test addresses T1, human Cot/Tpl2 kinase (Homo sapiens, UniProt P41279).
T1 construct: human Cot/Tpl2 kinase construct encoding residues 30-398; 6His (N); made in house; host or cells: Sf9 insect cells, baculovirus system (BD Biosciences)
Kind of test: Tpl2/Cot kinase assay: GST-MEK1 phosphorylation detected by ELISA (DELFIA Eu). The test is classed as biochemical. The following applies: Tpl2/Cot kinase, GST-MEK1 substrate, 50 uM ATP, 1 h at 30° C.; Table 2. In a few lines:
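Substrate phosphorylation (GST-MEK1 Ser217/221) quantified by DELFIA europium ELISA, yielding IC50 values. Reaction: 1 h at 30° C, pH 7.2 MOPS buffer, 50 uM ATP, 35 nM GST-MEK1, 0.4 nM monomeric His-Tpl2 purified from Sf9 cells, compounds at 1% final DMSO; stopped with EDTA.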
(In general: An ELISA detects its analyte on a solid surface through an enzyme-linked reagent.)
The term IC50 denotes the concentration that gives 50% inhibition. For `N#Cc1cnc2c(Cl)cc(NC[C@H]3C[C@H](OCc4ccccc4)CO3)cc2c1Nc1ccc(F)c(Cl)c1` [Example 935], the IC50 was more than 3000 nM. As to `N#Cc1cnc2c(Cl)cc(NCc3cn(CCC4CCN(CC5CC5)CC4)nn3)cc2c1Nc1ccc(F)c(Cl)c1` [Example 936], the half-inhibitory concentration (IC50) is 130 nM. In other words, the sub-micromolar range.

Consider `N#Cc1cnc2c(Cl)cc(NCc3cn(CCC4CCN(C5CCC5)CC4)nn3)cc2c1Nc1ccc(F)c(Cl)c1` [Example 937], for which inhibition was half-maximal at 150 nM (IC50). This IC50 and that of the compound before are within 1.5-fold of each other.

As for `N#Cc1cnc2c(Cl)cc(NCc3cn(CCC4CCN(C5CCCC5)CC4)nn3)cc2c1Nc1ccc(F)c(Cl)c1` [Example 938], the IC50 was found to be 200 nM. In turn, `N#Cc1cnc2c(Cl)cc(NC[C@H]3C[C@H](OCc4cccnc4)CO3)cc2c1Nc1ccc(F)c(Cl)c1` [Example 939] had an IC50 of more than 3000 nM.

As for `N#Cc1cnc2c(Cl)cc(OCc3cn(C4CCNCC4)nn3)cc2c1Nc1ccc(F)c(Cl)c1` [Example 940], the 50% inhibitory concentration (IC50) was 150 nM. Compound `CC(C)(C)OC(=O)N1CCC(n2cc(COc3cc(Cl)c4ncc(C#N)c(Nc5ccc(F)c(Cl)c5)c4c3)nn2)CC1` [Example 941] yielded a half-inhibitory concentration (IC50) of 520 nM. In turn, `CC(C)N1CCC[C@H]1CCn1cc(CNc2cc(Br)c3ncc(C#N)c(Nc4ccc(F)c(Cl)c4)c3c2)nn1` [Example 942] registered an IC50 of 19 nM. Compound `CC(C)(C)OC(=O)N1CCC(n2cc(CNc3cc(Cl)c4ncc(C#N)c(NC5CCCC5)c4c3)nn2)CC1` [Example 943] registered a half-maximal inhibitory concentration (IC50) of more than 3000 nM. In turn, `CN1CCCC1CCn1cc(CNc2cc(Cl)c3ncc(C#N)c(NC4CCCC4)c3c2)nn1` (stereo not drawn) [Example 944] yielded an IC50 of more than 3000 nM. The value for `N#Cc1cnc2c(Cl)cc(NCc3cn(CCN4CCCCCC4)nn3)cc2c1NC1CCCC1` [Example 945] was 630 nM; that for `CN(C)CCn1cc(CNc2cc(Cl)c3ncc(C#N)c(NC4CCCC4)c3c2)nn1` [Example 946] was 590 nM.

With `CN1CCCC1CCn1cc(CNc2cc(Cl)c3ncc(C#N)c(NC4CCCCCC4)c3c2)nn1` (stereo not drawn) [Example 947], half-maximal inhibition (IC50) required 700 nM. As for `CC(C)(C)OC(=O)N1CCC(n2cc(CNc3cc(Cl)c4ncc(C#N)c(NC5CCCCCC5)c4c3)nn2)CC1` [Example 948], the figure is 2310 nM.

`N#Cc1cnc2c(Cl)cc(NCc3cn(CCN4CCCCCC4)nn3)cc2c1NC1CCCCCC1` [Example 949] returned a 50% inhibitory concentration (IC50) of 460 nM. The value for `CN(C)CCn1cc(CNc2cc(Cl)c3ncc(C#N)c(NC4CCCCCC4)c3c2)nn1` [Example 950] was 620 nM. Turning to `CN1CCCC1CCn1cc(CNc2cc(Cl)c3ncc(C#N)c(NC4CCC4)c3c2)nn1` (stereo not drawn) [Example 951], the IC50 is 460 nM. On to `CN1CCCC1CCn1cc(CNc2cc(Cl)c3ncc(C#N)c(NC4CCOCC4)c3c2)nn1` (stereo not drawn) [Example 952], for which the IC50 was found to be 1130 nM.

`CC(C)(C)OC(=O)N1CCC(n2cc(CNc3cc(Cl)c4ncc(C#N)c(NC5CCC5)c4c3)nn2)CC1` [Example 953] returned an IC50 of 810 nM. `N#Cc1cnc2c(Cl)cc(NCc3cn(CCN4CCCCC4)nn3)cc2c1NC1CCC1` [Example 954]: the half-maximal inhibitory concentration (IC50) amounted to 520 nM. This IC50 is about 1.6-fold lower than that of the compound before.

Consider `N#Cc1cnc2c(Cl)cc(NCc3cn(CCN4CCCCCC4)nn3)cc2c1NC1CCC1` [Example 955], for which the IC50 was found to be 440 nM. `CN(C)CCn1cc(CNc2cc(Cl)c3ncc(C#N)c(NC4CCC4)c3c2)nn1` [Example 956] returned an IC50 of 730 nM.

With `CC(C)(C)OC(=O)N1CCN(CCn2cc(CNc3cc(Cl)c4ncc(C#N)c(Nc5ccc(F)c(Cl)c5)c4c3)nn2)CC1` [Example 957], the IC50 was more than 3000 nM. Take `N#Cc1cnc2c(Cl)cc(NCc3cn(CCN4CCNCC4)nn3)cc2c1Nc1ccc(F)c(Cl)c1` [Example 958]: half-maximal inhibition (IC50) required 310 nM. As for `CC(=O)N1CCN(CCn2cc(CNc3cc(Cl)c4ncc(C#N)c(Nc5ccc(F)c(Cl)c5)c4c3)nn2)CC1` [Example 959], the figure is 92 nM; as for `CC(C)(C)CC(=O)N1CCN(CCn2cc(CNc3cc(Cl)c4ncc(C#N)c(Nc5ccc(F)c(Cl)c5)c4c3)nn2)CC1` [Example 960], 130 nM; as for `CN(C)C(=O)N1CCN(CCn2cc(CNc3cc(Cl)c4ncc(C#N)c(Nc5ccc(F)c(Cl)c5)c4c3)nn2)CC1` [Example 961], 31 nM.

Regarding `CCNC(=O)N1CCN(CCn2cc(CNc3cc(Cl)c4ncc(C#N)c(Nc5ccc(F)c(Cl)c5)c4c3)nn2)CC1` [Example 962], the 50% inhibitory concentration (IC50) came out at 23 nM. The IC50 values of the last two compounds are within 1.5-fold of each other. As to `CN1CCN(CCn2cc(CNc3cc(Cl)c4ncc(C#N)c(Nc5ccc(F)c(Cl)c5)c4c3)nn2)CC1` [Example 963], the half-inhibitory concentration (IC50) stood at 650 nM.

`CCN1CCN(CCn2cc(CNc3cc(Cl)c4ncc(C#N)c(Nc5ccc(F)c(Cl)c5)c4c3)nn2)CC1` [Example 964] had a half-maximal inhibitory concentration (IC50) of 260 nM. `CC(C)N1CCN(CCn2cc(CNc3cc(Cl)c4ncc(C#N)c(Nc5ccc(F)c(Cl)c5)c4c3)nn2)CC1` [Example 965] registered a half-inhibitory concentration (IC50) of 430 nM. `N#Cc1cnc2c(Cl)cc(NCc3cn(CCN4CCN(CC5CC5)CC4)nn3)cc2c1Nc1ccc(F)c(Cl)c1` [Example 966]: the IC50 worked out at 150 nM. In the case of `CN1CCCC1CCn1cc(CNc2ccc3ncc(C#N)c(NC4CCCCC4)c3c2)nn1` (stereo not drawn) [Example 967], the half-inhibitory concentration (IC50) turned out to be 460 nM.

In the case of `CC(C)(C)OC(=O)N1CCC(n2cc(CNc3ccc4ncc(C#N)c(NC5CCCCC5)c4c3)nn2)CC1` [Example 968], the IC50 came out at 670 nM. The compound `CN(C)CCn1cc(CNc2ccc3ncc(C#N)c(NC4CCCCC4)c3c2)nn1` [Example 969] returned an IC50 of 380 nM.

Compound `N#Cc1cnc2ccc(NCc3cn(CCN4CCCCCC4)nn3)cc2c1NC1CCCCC1` [Example 970] had a half-inhibitory concentration (IC50) of 510 nM. In the case of `CN1CCCC1CCn1cc(CNc2cc(Cl)c3ncc(C#N)c(NC4CCC5(CCCCC5)CC4)c3c2)nn1` (stereo not drawn) [Example 971], the 50% inhibitory concentration (IC50) was more than 3000 nM. Compound `CN1CCCC1CCn1cc(CNc2cc(Cl)c3ncc(C#N)c(NC4CCCC5(CCCC5)C4)c3c2)nn1` (stereo not drawn) [Example 972] registered a half-maximal inhibitory concentration (IC50) of more than 3000 nM.

The compound `CC(C)(C)OC(=O)N1CCC(n2cc(CNc3cc(Cl)c4ncc(C#N)c(NC5CCC6(CCCCC6)CC5)c4c3)nn2)CC1` [Example 973] yielded a half-inhibitory concentration (IC50) of more than 3000 nM. `CC(C)(C)OC(=O)N1CCC(n2cc(CNc3cc(Cl)c4ncc(C#N)c(NC5CCCC6(CCCC6)C5)c4c3)nn2)CC1` (stereo not drawn) [Example 974] gave an IC50 of more than 3000 nM. The value for `N#Cc1cnc2c(Cl)cc(NCc3cn(CCN4CCCCCC4)nn3)cc2c1NC1CCC2(CCCCC2)CC1` [Example 975] was more than 3000 nM; that for `N#Cc1cnc2c(Cl)cc(NCc3cn(CCN4CCCCCC4)nn3)cc2c1NC1CCCC2(CCCC2)C1` (stereo not drawn) [Example 976] was more than 3000 nM; that for `N#Cc1cnc2ccc(NCc3cn(C4CCNCC4)nn3)cc2c1NC1CCCCC1` [Example 977] was 130 nM.

Consider `N#Cc1cnc2c(Cl)cc(NCc3cn(C4CCNCC4)nn3)cc2c1NC1CCC2(CCCCC2)CC1` [Example 978], for which the IC50 is more than 3000 nM.

As for `N#Cc1cnc2c(Cl)cc(NCc3cn(C4CCNCC4)nn3)cc2c1NC1CCCC2(CCCC2)C1` (stereo not drawn) [Example 979], the IC50 is 970 nM. Turning to `COC(=O)N1CCC(n2cc(CNc3cc(Cl)c4ncc(C#N)c(Nc5ccc(F)c(Cl)c5)c4c3)nn2)CC1` [Example 980], it took 24 nM to reach half-maximal inhibition (IC50). This IC50 is about 40-fold lower than that of the compound before. In turn, `COC(=O)N1CCC(n2cc(CN(C(=O)OC)c3cc(Cl)c4ncc(C#N)c(Nc5ccc(F)c(Cl)c5)c4c3)nn2)CC1` [Example 981] returned a concentration for half-maximal inhibition (IC50) of 610 nM. `N#Cc1cnc2c(Cl)cc(NCc3cn(C4CCN(C(=O)OCCF)CC4)nn3)cc2c1Nc1ccc(F)c(Cl)c1` [Example 982] came in with a concentration for half-maximal inhibition (IC50) of 31 nM. `N#Cc1cnc2c(Cl)cc(N(Cc3cn(C4CCN(C(=O)OCCF)CC4)nn3)C(=O)OCCF)cc2c1Nc1ccc(F)c(Cl)c1` [Example 983] had an IC50 of more than 3000 nM. The compound `CN(C)CCn1cc(CNc2cc(Cl)c3ncc(C#N)c(NCC(F)(F)F)c3c2)nn1` [Example 984] had an IC50 of 1090 nM.

Turning to `N#Cc1cnc2c(Cl)cc(NCc3cn(CCN4CCCCC4)nn3)cc2c1NCC(F)(F)F` [Example 985], it took 1410 nM to reach half-maximal inhibition (IC50).

For the compound `N#Cc1cnc2c(Cl)cc(NCc3cn(C4CCNCC4)nn3)cc2c1NC1CCC1` [Example 986], it took 350 nM to reach half-maximal inhibition (IC50).

Compound `N#Cc1cnc2c(Cl)cc(NCc3cn(C4CCNCC4)nn3)cc2c1NC1CCOCC1` [Example 987] had a half-maximal inhibitory concentration (IC50) of 1100 nM. Against the preceding compound, the IC50 is about 3.1-fold higher.

`N#Cc1cnc2c(Cl)cc(NCc3cn(CCN4CCCCCC4)nn3)cc2c1Nc1ccc(Oc2ccccc2)cc1` [Example 988] had an IC50 of more than 3000 nM. Turning to `CC(C)(C)OC(=O)N1CCC(n2cc(CNc3cc(Cl)c4ncc(C#N)c(Nc5ccc(Oc6ccccc6)cc5)c4c3)nn2)CC1` [Example 989], the IC50 was determined as 400 nM. `CN1CCCC1CCn1cc(CNc2cc(Cl)c3ncc(C#N)c(Nc4ccc(Oc5ccccc5)cc4)c3c2)nn1` (stereo not drawn) [Example 990] gave an IC50 of 830 nM.

For `N#Cc1cnc2c(Cl)cc(NCc3cn(C4CCN(C[C@@H](O)[C@H](O)CO)CC4)nn3)cc2c1Nc1ccc(F)c(Cl)c1` [Example 991], 8.2 nM corresponded to half-maximal inhibition (IC50). Against the preceding compound, the IC50 is about 100-fold lower. The compound `N#Cc1cnc2c(Cl)cc(NCc3cn(C4CCN(CCO)CC4)nn3)cc2c1Nc1ccc(F)c(Cl)c1` [Example 992] returned an IC50 of 2 nM. This IC50 is about 4.1-fold lower than that of the compound before. As for `N#Cc1cnc2c(Cl)cc(NCc3cn(CC(O)c4ccccn4)nn3)cc2c1Nc1ccc(F)c(Cl)c1` (stereo not drawn) [Example 993], the figure is 48 nM; as for `N#Cc1cnc2c(Cl)cc(NCc3cn(C4CCN(CC(O)CO)CC4)nn3)cc2c1Nc1ccc(F)c(Cl)c1` (stereo not drawn) [Example 994], 6.8 nM; as for `CC#CCn1cc(CNc2cc(Cl)c3ncc(C#N)c(Nc4ccc(F)c(Cl)c4)c3c2)nn1` [Example 995], 240 nM. For the compound `Cc1cc(CNc2cc(Cl)c3ncc(C#N)c(Nc4ccc(F)c(Cl)c4)c3c2)no1` [Example 996], the IC50 was more than 3000 nM. The value for `N#Cc1cnc2c(Cl)cc(NCc3cn(C4CC5CCC(C4)N5)nn3)cc2c1Nc1ccc(F)c(Cl)c1` (stereo not drawn) [Example 997] was 11 nM.
